System: zymosan-induced peritonitis
Assay: Zymosan-induced peritonitis in mice
Assay type: in vivo, mouse
Description: Figure 5 Effect of compound 3 in zymosan-induced peritonitis in mice. Mice were randomly divided into different experimental groups: control group (Ctrl), model group (zymosan + vehicle compound 3), zymosan + compound 3 (i.p. injection 30 min after i.p. injection of zymosan) group, and zymosan + dexamethasone (i.p. injection 30 min after i.p. injection of zymosan) group. At (A) 4 and (B) 24 h after injection, peritoneal exudate from each mouse was recovered, and the total cell number was evaluated. Results are expressed as mean ± SD. For statistical analysis see SI.
Figure 6 Analysis of cytokine levels collected in the peritoneal exudate of mice from different experimental groups: (A, B) IL-1β, (C, D) IL-6, (E, F) PGE2, and (G, H) IL-10. Results (normalized to exudate levels) are expressed as mean ± SD. For statistical analysis see SI.
Induction of peritonitis in mice and Enzyme-Linked Immunosorbent Assay (ELISA)
To examine the anti-inflammatory action of compound 3, we next evaluated the biological activity of
compound 3 in a mouse model of zymosan-induced peritonitis, as as previously described. 13,14 26, 27
To this aim, mice were randomly divided into different experimental groups: control group (Ctrl),
model group (zymosan + vehicle compound 3), zymosan + compound 3 (0.1, 1, and 10 mg/kg), and
zymosan + dexamethasone (3 mg/kg) group. Animals received the selected compound or
dexamethasone intraperitoneally (i.p.) 30 min after i.p. injection of zymosan (500 mg/kg)26, 27. Ctrl
and model groups received an equal volume of vehicle (PBS or DMSO/saline 1:3, respectively).
Peritoneal exudates were collected at selected time points (4 and 24 h) by washing the cavity with 2
mL of PBS. Then cell number of lavage fluids was determined by TC10 automated cell counter (Bio-
Rad, Milan, Italy) using disposable slides. The remaining lavage fluids were centrifuged at 3000 rpm
for 20 min at 4 °C, and supernatants were frozen at −80 °C for further ELISA analysis according to
the manufacturer instructions (eBioscience Co., San Diego, CA, USA)10 23 of IL-1β, IL-6, PGE 2 and
IL-10 following the procedure previously described15-17 28-30. Dexamethasone and zymosan A were
purchased from Sigma-Aldrich (Milan, Italy). DMSO was purchased from Merck (Italy). Unless
otherwise stated, all the other reagents were purchased from Carlo Erba (Milan, Italy).
The data and statistical analysis in this study comply with the international recommendations on
experimental design and analysis in preclinical pharmacology18-2031-33. The results obtained were
expressed as the mean ± S.D. or as mean ± S.E.M., as reported in detail in the figure legends. IC 50
values were calculated by nonlinear regression using GraphPad Prism Version 8.0 software (San
Diego, CA) one site binding competition. Statistical evaluation of the data was performed by one-

[1] = 10 mg/kg i.p., 4 h (P ≤ 0.05) and 24 h (P ≤ 0.01)

O=C(Nc1nnc(-c2ccc(-c3cccc(O)c3)cc2)s1)c1ccccc1Br [compound 3]
leucocyte recruitment (total cell number in peritoneal exudate) (1 mg/kg i.p., 4 and 24 h, P ≤ 0.05): remarkable effect
leucocyte recruitment (total cell number in peritoneal exudate) (10 mg/kg i.p. 30 min after zymosan, 4 h, P ≤ 0.05): reduced
leucocyte recruitment (total cell number in peritoneal exudate) (10 mg/kg i.p. 30 min after zymosan, 24 h, P ≤ 0.01): reduced
IL-10 level in peritoneal exudate (10 mg/kg i.p., 4 and 24 h): modulated only at 24 h
PGE2 level in peritoneal exudate (10 mg/kg i.p., 4 and 24 h (P ≤ 0.01)): significantly reduced
IL-1β level in peritoneal exudate [1]: significantly reduced
IL-6 level in peritoneal exudate [1]: significantly reduced
